This assay has as its system production of TNF by monocytes activated with bacterial lipopolysaccharide (LPS). Briefly: Lipopolysaccharide-activated monocyte TNF production assay. Type of assay: cell-based. The settings on record: Homo sapiens; whole blood monocyte assay (LPS induced TNF release). Here is the method:
Test compounds were evaluated in vitro for the ability to inhibit the production of TNF by monocytes activated with bacterial lipopolysaccharide (LPS). Fresh residual source leukocytes (a byproduct of plateletpheresis) were obtained from a local blood bank, and peripheral blood mononuclear cells (PBMCs) were isolated by density gradient centrifugation on Ficol-Paque Plus (Pharmacia). PBMCs were suspended at 2×10^6/mL in DMEM supplemented to contain 2% FCS, 10 mM, 0.3 mg/mL […], 100 U/mL penicillin G and […] streptomycin sulfate (complete media). Cells were plated into Falcon flat bottom, 96 well culture plates (200 μL/well) and cultured overnight at 37° C. and 6% CO2. Non-adherent cells were removed by washing with 200 μl/well of fresh medium.
Test compounds were dissolved in […]. Compound stock solutions were prepared to an initial concentration of […]. Stocks were diluted initially to 20-200 μM in complete media. Nine two-fold serial dilutions of each compound were then prepared in complete medium.
One hundred microliters of each test compound dilution were added to microtiter wells containing adherent monocytes and 100 μL complete medium. Monocytes were cultured with test compounds for 60 min at which time 25 μL of complete medium containing 30 ng/mL lipopolysaccharide from E. coli K532 were added to each well. Cells were cultured an additional 4 hrs. Culture supernatants were then removed and TNF presence in the supernatants was quantified using an ELISA.
Flat bottom, 96 well Corning High Binding ELISA plates were coated overnight (4° C.) with 150 μL/well of 3 μg/mL murine anti-human TNF-α MAb (R&D Systems #MAB210). Wells were then blocked for 1 h at room temperature with 200 μL/well of CaCl2-free ELISA buffer supplemented to contain 20 mg/mL BSA (standard ELISA buffer: […], 150 mM NaCl, 2 mM CaCl2, 0.15 mM thimerosal, pH 7.4). Plates were washed and replenished with 100 μL of test supernatants (diluted 1:3) or standards. Standards consisted of eleven 1.5-fold serial dilutions from a stock of I ng/mL recombinant human TNF (R&D Systems). Plates were incubated at room temperature for 1 h on orbital shaker (300 rpm), washed and replenished with 100 μL/well of 0.5 μg/mL goat anti-human TNF-α (R&D systems #AB-210-NA) biotinylated at a 4:1 ratio. Plates were incubated for 40 min, washed and replenished with 100 μL/well of alkaline phosphatase-conjugated streptavidin (Jackson ImmunoResearch #016-050-084) at 0.02 μg/mL. Plates were incubated 30 min, washed and replenished with 200 μL/well of 1 mg/mL of p-nitrophenyl phosphate. After 30 min, plates were read at 405 nm on a Vmax plate reader.
Standard curve data were fit to a second order polynomial and unknown TNF-α concentrations determined from their OD by solving this equation for concentration. TNF concentrations were then plotted vs. test compound concentration using a second order polynomial. This equation was then used to calculate the concentration of test compounds causing a 50% reduction in TNF production.

Structures are written as SMILES.

`O=C(NC1CC1)c1cccc(-c2ccc3c(N4CCOCC4)nncc3c2)c1` [Example 69, N-Cyclopropyl-3-(1-morpholin-4-ylphthalazin-6-yl)benzamide] came in with a 50% inhibitory concentration (IC50) of at most 5 µM.

As to `COc1ccc(-c2nncc3cc(-c4cc(C(N)=O)ccc4C)ccc23)c(Cl)c1` [Example 229, 3-[1-(2-chloro-4-methoxyphenyl)phthalazin-6-yl]-4-methylbenzamide], the IC50 was at most 5 µM.

Regarding `COc1ncccc1-c1nncc2cc(-c3cc(C(N)=O)ccc3C)ccc12` [Example 228, 3-[1-(2-methoxypyridin-3-yl)phthalazin-6-yl]-4-methylbenzamide], the IC50 is at most 5 µM.

Molecule `Cc1ccc(C(=O)NC2CC2)cc1-c1ccc2c(N3CCC(C(N)=O)CC3)nncc2c1` [Example 114, 1-(6-{5-[(cyclopropylamino)carbonyl]-2-methylphenyl}phthalazin-1-yl)piperidine-4-carboxamide] had an IC50 of at most 5 µM.

In turn, `Cc1ccc(C(=O)NC2CC2)cc1-c1ccc2c(-c3ccccc3Cl)nncc2c1` [Example 170, 3-[1-(2-chlorophenyl)phthalazin-6-yl]-N-cyclopropyl-4-methylbenzamide] returned an IC50 of at most 5 µM.

`CCOc1cc(Cl)ccc1-c1nncc2cc(-c3cc(C(N)=O)ccc3C)ccc12` [Example 238, 3-[1-(4-chloro-2-ethoxyphenyl)phthalazin-6-yl]-4-methylbenzamide] registered a 50% inhibitory concentration (IC50) of at most 5 µM.

In turn, `Fc1ccc(Oc2ccc3c(-c4ccc(CN5CCOCC5)cc4)nncc3c2)cc1` [Example 333, 6-(4-fluorophenoxy)-1-[4-(morpholin-4-ylmethyl)phenyl]phthalazine] registered an IC50 of at most 5 µM.

With `Cc1ccc(C(N)=O)cc1-c1ccc2c(N3C[C@@H](C)OC[C@H]3C)nncc2c1` [Example 171, 3-{1-[(2R,5R)-2,5-dimethylmorpholin-4-yl]phthalazin-6-yl}-4-methylbenzamide], the IC50 is at most 5 µM.

For `COc1cc(-c2nncc3cc(-c4cc(C(N)=O)ccc4C)ccc23)c(C)cn1` [Example 252, 3-[1-(2-methoxy-5-methylpyridin-4-yl)phthalazin-6-yl]-4-methylbenzamide], the IC50 is at most 5 µM.

In turn, `CNc1noc2c(-c3ccc4c(NC(C)C)nncc4c3)c(C)ccc12` [Example 372, N-isopropyl-6-[6-methyl-3-(methylamino)-1,2-benzisoxazol-7-yl]phthalazin-1-amine] registered an IC50 of at most 5 µM.

The molecule `Cc1ccc2c(NC3CC3)noc2c1-c1ccc2c(N3CCOC[C@@H]3C)nncc2c1` [Example 14, N-cyclopropyl-6-methyl-7-(1-((S)-3-methylmorpholino)phthalazin-6-yl)benzo[d]isoxazol-3-amine] returned an IC50 of at most 5 µM.

As for `Cc1ccc(C(N)=O)cc1-c1ccc2c(-c3ccc(OC(C)C)cc3C)nncc2c1` [Example 227, 3-[1-(4-isopropoxy-2-methylphenyl)phthalazin-6-yl]-4-methylbenzamide], the IC50 is at most 5 µM.

`CNc1noc2c(-c3ccc4c(N5C[C@@H](C)OC[C@H]5C)nncc4c3)c(C)ccc12` [Example 65, 7-(1-((2R,5R)-2,5-dimethylmorpholino)phthalazin-6-yl)-N,6-dimethylbenzo [d]isoxazol-3-amine] gave an IC50 of at most 5 µM.

The molecule `Cc1ccc(C(=O)NC2CC2)cc1-c1ccc2c(N3CCC[C@H]3C(C)C)nncc2c1` [Example 293, N-cyclopropyl-3-{1-[(2S)-2-isopropylpyrrolidin-1-yl]phthalazin-6-yl}-4-methylbenzamide] returned a concentration for half-maximal inhibition (IC50) of at most 5 µM.

For `Cc1ccc(C(N)=O)cc1-c1ccc2c(-c3ccc(S(C)(=O)=O)cc3C)nncc2c1` [Example 96, 4-methyl-3-(1-(2-methyl-4-(methylsulfonyl)phenyl)phthalazin-6-yl)benzamide], the IC50 is at most 5 µM.

Consider `Cc1ccc(C(=O)NC2CC2)cc1-c1ccc2c(N3CC4CC3CO4)nncc2c1` (centres unmarked) [Example 27, 3-(1-(5-oxa-2-aza-bicyclo[2.2.1]heptan-2-yl)phthalazin-6-yl)-N-cyclopropyl-4-methylbenzamide], for which the half-maximal inhibitory concentration (IC50) was at most 5 µM.

Consider `COc1ccc(C(F)(F)F)cc1NC(=O)c1ccc(C)c(-c2ccc3c(N4CCOCC4)nncc3c2)c1` [Example 43, N-(2-methoxy-5-(trifluoromethyl)phenyl)-4-methyl-3-(1-morpholinophthalazin-6-yl)benzamide], for which the IC50 was at most 5 µM.

`NC(=O)c1ccc(F)c(-c2ccc3c(N4CCOCC4)nncc3c2)c1` [Example 177, 4-fluoro-3-(1-morpholin-4-ylphthalazin-6-yl)benzamide]: the half-inhibitory concentration (IC50) is at most 5 µM.

Take `Cc1ccccc1-c1ccc2c(N3CCOCC3c3ccc(Cl)cc3)nncc2c1` (centres unmarked) [Example 17, 1-(3-(4-chlorophenyl)morpholino)-6-o-tolylphthalazine]: the IC50 was at most 5 µM.

Regarding `Cc1ccc(C(=O)NC2CC2)cc1-c1ccc2c(N3C[C@@H](C)OC[C@H]3C)nncc2c1` [Example 174, N-cyclopropyl-3-{1-[(2R,5R)-2,5-dimethylmorpholin-4-yl]phthalazin-6-yl}-4-methylbenzamide], the IC50 was at most 5 µM.

`Cc1ccc(C(=O)NC2CC2)cc1-c1ccc2c(N3C(C)CC[C@@H]3C(=O)NC(C)C)nncc2c1` (stereo partly drawn) [Example 68, (2R)-1-(6-(5-(Cyclopropylcarbamoyl)-2-methylphenyl)phthalazin-1-yl)-N-isopropyl-5-methylpyrrolidine-2-carboxamide] returned an IC50 of at most 5 µM.

In turn, `CC(=O)N1CCN(c2nncc3cc(-c4cc(C(=O)NC5CC5)ccc4C)ccc23)CC1` [Example 157, 3-[1-(4-acetylpiperazin-1-yl)phthalazin-6-yl]-N-cyclopropyl-4-methylbenzamide] yielded an IC50 of at most 5 µM.

As to `Cc1ccc(C(=O)NC2CC2)cc1-c1ccc2c(N3CCSCC3)nncc2c1` [Example 134, N-cyclopropyl-4-methyl-3-(1-thiomorpholin-4-ylphthalazin-6-yl)benzamide], the IC50 is at most 5 µM.

In turn, `Cc1ccc(C(=O)NC2CC2)cc1-c1ccc2c(NCCN3CCOCC3)nncc2c1` [Example 111, N-cyclopropyl-4-methyl-3-{1-[(2-morpholin-4-ylethyl)amino]phthalazin-6-yl}benzamide] gave an IC50 of at most 5 µM.

In the case of `Cc1ccc(C(N)=O)cc1-c1ccc2c(-c3cc4ccccc4[nH]3)nncc2c1` [Example 216, 3-[1-(1H-indol-2-yl)phthalazin-6-yl]-4-methylbenzamide], the half-inhibitory concentration (IC50) was at most 5 µM.

In the case of `Cc1ccc(C(=O)NC2CC2)cc1-c1ccc2c(-c3ccc(OC(F)(F)F)cc3)nncc2c1` [Example 245, N-cyclopropyl-4-methyl-3-{1-[4-(trifluoromethoxy)phenyl]phthalazin-6-yl}benzamide], the half-maximal inhibitory concentration (IC50) was at most 5 µM.

`Cc1ccc(C(=O)NC2CC2)cc1-c1ccc2c(NCCN(C)C)nncc2c1` [Example 183, N-cyclopropyl-3-(1-{[2-(dimethylamino)ethyl]amino}phthalazin-6-yl)-4-methylbenzamide]: the half-inhibitory concentration (IC50) was at most 5 µM.

`Cc1ccc(C(=O)NC2CC2)cc1-c1ccc2c(-c3ccc(C(C)(C)C)cc3)nncc2c1` [Example 253, 3-[1-(4-tert-butylphenyl)phthalazin-6-yl]-N-cyclopropyl-4-methylbenzamide] gave a concentration for half-maximal inhibition (IC50) of at most 5 µM.

`Cc1ccc(C(=O)NC2CC2)cc1-c1ccc2c(N3C[C@@H]4C[C@H]3CO4)nncc2c1` [Example 120, N-cyclopropyl-4-methyl-3-{1-[(1S,4S)-2-oxa-5-azabicyclo[2.2.1]hept-5-yl]phthalazin-6-yl}benzamide] showed an IC50 of at most 5 µM.

`NC(=O)c1ccc(Cl)c(-c2ccc3c(N4CCOCC4)nncc3c2)c1` [Example 73, 4-Chloro-3-(1-morpholin-4-ylphthalazin-6-yl)benzamide] came in with an IC50 of at most 5 µM.

As to `Cc1ccc(C(=O)NC2CC2)cc1-c1ccc2c(NC(C)C)nncc2c1` [Example 172, N-cyclopropyl-3-[1-(isopropylamino)phthalazin-6-yl]-4-methylbenzamide], the 50% inhibitory concentration (IC50) was at most 5 µM.

Turning to `CC(=O)N1CCN(c2nncc3cc(-c4c(C)ccc5c(NC6CC6)noc45)ccc23)[C@@H](C)C1` [Example 390, 7-{1-[(2S)-4-acetyl-2-methylpiperazin-1-yl]phthalazin-6-yl}-N-cyclopropyl-6-methyl-1,2-benzisoxazol-3-amine], the half-inhibitory concentration (IC50) is at most 5 µM.

(Values after US7759337B2, “Phthalazine compounds and methods of use” (Amgen Inc., priority 2005, dated 2010).)
